Reference: patent US20210196779A1, “Compositions and Methods for Treating Steroid Hormone-Related Diseases or Disorders” (YALE UNIVERSITY, priority 2018, published 2021)
Like-named read-outs stand apart in the source and are kept apart here.

Legend:
Type in all cases: cell-based
[1] = tested on: progesterone receptor PR (a and b); experiment: Western blot, MCF7 cells, PR; details: presence or absence of E2, 24 h
Procedure: (§1) Western blot analysis was used to determine the protein expression using protein specific antibodies.
(§2) Total cell lysis was conducted using 2×SDS sample buffer (62.5 mM Tris-HCl, 2% SDS, 10% glycerol, 50 mM DTT, and 0.05% bromophenol blue). The samples were sonicated for 10 s to shear DNA. Cell nuclei were isolated using Tris buffer saline with 0.4% NP40. Cell extracts were then electrophoresed through 10% SDS-polyacrylamide gels and transferred to 0.2 μm nitrocellulose membranes (Bio-Rad Laboratories, Hercules, Calif.) with a Miniprotein II transferring apparatus (Bio-Rad). The membranes were blocked and probed in TBS-T buffer (1×TBS buffer, 0.2% Tween 20) containing 5% non-fat milk. Monoclonal rabbit anti-AR (1:5000), was used to detect androgen receptor (Abcam #133273), Glucocorticoid Receptor (D8H2) XP® Rabbit mAb #3660, ERa Antibody (F-10): sc-8002, BRD4 (E2A7X) Rabbit mAb #13440, Brd2 (D89B4) Rabbit mAb #5848, PARP (46D11) Rabbit mAb #9532, Acetyl-Histone H3 (Lys27) (D5E4) XP® Rabbit mAb #8173 and a monoclonal actin antibody diluted 1:2500 (Sigma, St. Louis, Mo.) was used to detect β-actin as the internal control to confirm equal protein loading. […] Enhanced chemiluminescence reagents (Perkin-Elmer Life Science Products, Boston, Mass.) were used to visualize the immunoreactive bands and the densities of protein bands were scanned analyzed using ImageJ software from the NIH.

GR [2] = experiment: Western blot, MCF7 cells, GR; details: 24 h
Procedure: as §1, §2

PC3 cells = experiment: Cell growth assay, PC3 cells; details: for IC50: Homo sapiens, PC-3, 96 h, 4 days, standardized to equivalent concentration of Y1830, read-out: IC50 for the inhibition of growth
Procedure: (§3) 20,000 cells in 1 ml of medium (phenol red free RPMI1640, 5% charcoal-dialysis FBS, 50 μg/ml Kanamyacin) were seeded per well of a 24-well plate and incubated in a 37° C. incubator with 5% CO2 overnight. Different concentrations of herbal extract were added to each well in order to have final concentrations from 50 μg/ml to 500 μg/ml. […] For glucocorticoid receptor overexpressed LNCaP cells, dexamethasone (50 nM) was used to stimulate glucocorticoid receptor activity. For all breast cancer cells, E2 (10 nM) was used to stimulate ER activity. Control medium without any steroid hormone was used as a control setting. After 4 days of incubation, cells were fixed and stained for 2 h with 0.5% methylene blue in 50% ethanol, followed by washing with tap water to remove unbound dye. Plates were air dried and then cells were dissolved in 1% sarkosyl (sodium lauroyl sarcosinate) by shaking at room temperature for 3 h. […] All experiments were performed in triplicate wells and were repeated at least three times.

beta-catenin (b-cat) [3] = experiment: Western blot, 22RV1 cells, beta-catenin; details: presence or absence of DHT, 24 h
Procedure: as §1, §2

AR-V (truncated AR) = experiment: Western blot, 22RV1 cells, AR-V; details: presence or absence of DHT, 24 h
Procedure: as §1, §2

cyclin D1 (cycD1) [4] = experiment: Western blot, 22RV1 cells, cyclin D1; details: presence or absence of DHT, 24 h
Procedure: as §1, §2

cyclin D1 (cycD1) [5] = experiment: Western blot, MCF7 cells, cyclin D1; details: presence or absence of E2, 24 h
Procedure: as §1, §2

androgen receptor (AR) = experiment: PSA-luciferase reporter assay, DHT induced, 22RV1 cells; details: equivalent doses, 22RV1 cells in the presence of DHT
Procedure: 22RV1 or LNCaP prostate cancer cells were used in the screening study. 22RV1 or LNCaP cell lines were stably transfected with PSA promoter-PGL4.2 luciferase reporter. DHT (25 nM) was used to stimulate androgen receptor activity for 24 h.
Reporter cells were treated with herbal extracts at 30, 100, 300, and 1000 μg/ml for 24 h in a 37° C.-CO2 incubator. DHT (25 nM) was used to stimulate androgen receptor activity. Dexamethasone (50 nM) was used to stimulate glucocorticoid receptor activity Cells were lysed using luciferase lysis buffer after which luciferase buffer with luciferin was added to generate luminescence. Luminescence was recorded using a luminescence microplate reader.

estrogen receptor ERa = molecular target: T1, estrogen receptor ERa (Homo sapiens, UniProt P03372); experiment: Western blot, MCF7 cells, ERa; details: presence or absence of E2, 24 h
T1 construct: endogenous in cells; host or cells: MCF7
Procedure: as §1, §2

beta-catenin (b-cat) [6] = experiment: Western blot, MCF7 cells, beta-catenin; details: presence or absence of E2, 24 h
Procedure: as §1, §2

AR [7] = experiment: Western blot, 22RV1 cells, AR; details: presence or absence of DHT, 24 h
Procedure: as §1, §2

22Rv1 cells = experiment: Cell growth assay, 22Rv1 prostate cancer cells; details: Homo sapiens, 22Rv1, 96 h, 4 days, standardized to equivalent concentration of Y1830, read-out: IC50 for the inhibition of growth
Procedure: (§4) 22RV1 or LNCaP prostate cancer cells were grown in corning T75 cell culture flasks in RPMI1640 medium supplemented with 5% FBS, 50 μg/ml Kanamycin in a 37° C., 5% CO2 incubator.
as §3

AR [8] = molecular target: T2, AR (Homo sapiens, UniProt P10275); experiment: Western blot, MCF7 cells, AR; details: presence or absence of E2, 24 h
T2 construct: endogenous in cells; host or cells: MCF7
Procedure: as §1, §2

[9] = tested on: LNCaP-GR (GR overexpressing) cells; experiment: Cell growth assay, GR overexpressing LNCaP cells; details: for IC50: Homo sapiens, LNCaP, 96 h, 4 days, standardized to equivalent concentration of Y1830, read-out: IC50 for the inhibition of growth
Procedure: as §3

LNCaP cells = experiment: Cell growth assay, LNCaP prostate cancer cells; details: for IC50: Homo sapiens, LNCaP, 96 h, 4 days, standardized to equivalent concentration of Y1830, read-out: IC50 for the inhibition of growth
Procedure: as §4, §3

GR [10] = experiment: Western blot, 22RV1 cells, GR; details: presence or absence of DHT, 24 h
Procedure: as §1, §2

estrogen receptor ERb = experiment: Western blot, MCF7 cells, ERb; details: presence or absence of E2, 24 h
Procedure: as §1, §2

T1 sequence (P03372 whole entry): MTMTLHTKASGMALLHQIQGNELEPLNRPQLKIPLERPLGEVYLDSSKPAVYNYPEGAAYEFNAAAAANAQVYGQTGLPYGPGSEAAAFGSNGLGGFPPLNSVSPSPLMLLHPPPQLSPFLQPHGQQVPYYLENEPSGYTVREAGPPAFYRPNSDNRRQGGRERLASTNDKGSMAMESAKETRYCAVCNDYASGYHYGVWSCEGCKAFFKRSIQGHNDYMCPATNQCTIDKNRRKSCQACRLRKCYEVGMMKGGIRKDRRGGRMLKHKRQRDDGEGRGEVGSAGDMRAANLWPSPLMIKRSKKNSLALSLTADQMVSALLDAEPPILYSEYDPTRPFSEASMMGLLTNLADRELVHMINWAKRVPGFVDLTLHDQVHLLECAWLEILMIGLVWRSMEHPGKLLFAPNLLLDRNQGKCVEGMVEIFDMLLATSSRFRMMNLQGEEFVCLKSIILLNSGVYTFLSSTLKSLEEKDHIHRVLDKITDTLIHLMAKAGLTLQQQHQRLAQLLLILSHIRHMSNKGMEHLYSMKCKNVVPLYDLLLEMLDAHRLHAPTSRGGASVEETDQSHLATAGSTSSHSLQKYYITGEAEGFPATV
T2 sequence (P10275 whole entry): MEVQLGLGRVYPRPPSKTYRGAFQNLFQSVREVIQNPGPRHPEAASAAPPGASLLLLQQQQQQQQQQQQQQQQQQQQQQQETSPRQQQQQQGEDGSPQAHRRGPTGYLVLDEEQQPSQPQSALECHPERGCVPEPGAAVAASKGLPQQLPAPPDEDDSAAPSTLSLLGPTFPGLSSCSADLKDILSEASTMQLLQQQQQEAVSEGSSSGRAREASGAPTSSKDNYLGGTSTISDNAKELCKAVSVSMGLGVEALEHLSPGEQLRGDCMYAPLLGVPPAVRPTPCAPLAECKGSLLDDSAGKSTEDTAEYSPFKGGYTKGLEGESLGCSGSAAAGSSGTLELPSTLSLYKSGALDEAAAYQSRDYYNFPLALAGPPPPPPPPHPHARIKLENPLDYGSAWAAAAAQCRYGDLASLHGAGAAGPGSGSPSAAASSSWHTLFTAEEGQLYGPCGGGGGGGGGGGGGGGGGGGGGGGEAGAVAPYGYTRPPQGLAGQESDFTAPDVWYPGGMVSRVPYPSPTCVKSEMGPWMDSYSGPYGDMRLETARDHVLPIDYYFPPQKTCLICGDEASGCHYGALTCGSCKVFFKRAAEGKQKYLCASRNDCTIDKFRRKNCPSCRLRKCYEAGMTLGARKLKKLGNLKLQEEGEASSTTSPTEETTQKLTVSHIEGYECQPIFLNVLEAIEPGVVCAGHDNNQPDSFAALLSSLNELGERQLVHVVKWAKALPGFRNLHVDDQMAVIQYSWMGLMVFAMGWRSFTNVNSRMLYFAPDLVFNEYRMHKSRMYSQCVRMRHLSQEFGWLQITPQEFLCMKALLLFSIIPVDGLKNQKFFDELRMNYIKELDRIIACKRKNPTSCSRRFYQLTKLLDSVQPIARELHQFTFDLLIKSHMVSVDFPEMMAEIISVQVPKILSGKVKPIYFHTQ

Q: Which “PR (a and b) protein expression” value [1] does the source give for `Cc1c(OC2OC(CO)C(O)C(O)C2OC2OC(C)C(O)C(O)C2O)cc2c(c1O)C(=O)c1ccc(O)cc1C2=O` [RG, 1,3,6-Trihydroxy-2-methyl-9,10-anthracenedione 3-O-[α-L-Rhamnopyranosyl-(1→2)-β-D-glucopyranoside]] here?
A: did not have any impact

Q: What about the GR protein expression (GR [2]) of the same compound?
A: did not have any impact

Q: What about the IC50 (PC3 cells; PC3, no DEX) of the same compound?
A: > 500 µg/mL

Q: And the IC50 (PC3 cells; PC3 w/DEX 50 nM)?
A: > 500 µg/mL

Q: What about the beta-catenin protein expression (beta-catenin (b-cat) [3]) of the same compound?
A: did not have impact

Q: What about the AR-V protein expression (AR-V (truncated AR)) of the same compound?
A: did not have impact

Q: And the “cyclin D1 protein expression” value (cyclin D1 (cycD1) [4])?
A: did not have impact

Q: What about the “cyclin D1 protein expression” value (cyclin D1 (cycD1) [5]) of the same compound?
A: did not have any impact

Q: And the “inhibitory effect on AR mediated transcriptional response” value (androgen receptor (AR))?
A: very weak activity

Q: And the ERa protein expression (estrogen receptor ERa)?
A: did not have any impact

Q: What about the beta-catenin protein expression (beta-catenin (b-cat) [6]) of the same compound?
A: did not have any impact

Q: And the AR protein expression (AR [7])?
A: did not have impact

Q: What about the IC50 (22Rv1 cells; 22Rv1, no DHT/DEX) of the same compound?
A: > 500 µg/mL

Q: And the IC50 (22Rv1 cells; 22Rv1 w/DEX 50 nM)?
A: > 500 µg/mL

Q: What about the IC50 (22Rv1 cells; 22Rv1 w/DHT 25 nM) of the same compound?
A: > 500 µg/mL

Q: And the AR protein expression (AR [8])?
A: did not have any impact

Q: And the IC50 ([9]; LNCaP-GR w/DEX 50 nM)?
A: > 500 µg/mL

Q: What about the IC50 ([9]; LNCaP-GR w/DHT 2 nM) of the same compound?
A: > 500 µg/mL

Q: What about the IC50 ([9]; LNCaP-GR, no DHT/DEX) of the same compound?
A: > 500 µg/mL

Q: What about the IC50 (LNCaP cells; LNCaP w/DHT 2 nM) of the same compound?
A: > 500 µg/mL

Q: What about the IC50 (LNCaP cells; no DHT) of the same compound?
A: > 500 µg/mL

Q: What about the GR protein expression (GR [10]) of the same compound?
A: did not have impact

Q: And the ERb protein expression (estrogen receptor ERb)?
A: did not have any impact

Q: For `CC(=O)OCC1OC(Oc2cc3c(c(O)c2C)C(=O)c2ccc(O)cc2C3=O)C(OC2OC(C)C(O)C(O)C2O)C(O)C1O` [RGA, 1,3,6-Trihydroxy-2-methyl-9,10-anthracenedione 3-O-[α-L-Rhamnopyranosyl-(1→2)-6-O-acetyl-β-D-glucopyranoside]], which “PR (a and b) protein expression” value [1] is on record?
A: downregulate

Q: What about the GR protein expression (GR [2]) of the same compound?
A: did not inhibited

Q: And the IC50 (PC3 cells; PC3, no DEX)?
A: 146 µg/mL

Q: What about the IC50 (PC3 cells; PC3 w/DEX 50 nM) of the same compound?
A: 320 µg/mL

Q: And the “inhibition of PC3 cell growth (in words)” value (PC3 cells; with or without DEX)?
A: inhibited PC3 cell growth, but less effectively in the presence of DEX

Q: And the beta-catenin protein expression (beta-catenin (b-cat) [3])?
A: moderate inhibitory effect

Q: What about the AR-V protein expression (AR-V (truncated AR)) of the same compound?
A: downregulate

Q: And the “cyclin D1 protein expression” value (cyclin D1 (cycD1) [4])?
A: strong inhibitory effect

Q: And the “cyclin D1 protein expression” value (cyclin D1 (cycD1) [5])?
A: strong inhibitory effects

Q: And the “inhibitory effect on AR mediated transcriptional response” value (androgen receptor (AR))?
A: very similar anti-AR activity as the Y1830 water extract

Q: And the ERa protein expression (estrogen receptor ERa)?
A: downregulate

Q: And the beta-catenin protein expression (beta-catenin (b-cat) [6])?
A: moderate inhibitory effect

Q: And the AR protein expression (AR [7])?
A: downregulate

Q: What about the IC50 (22Rv1 cells; 22Rv1, no DHT/DEX) of the same compound?
A: 306 µg/mL

Q: And the IC50 (22Rv1 cells; 22Rv1 w/DEX 50 nM)?
A: 220 µg/mL

Q: And the IC50 (22Rv1 cells; 22Rv1 w/DHT 25 nM)?
A: 253 µg/mL

Q: What about the AR protein expression (AR [8]) of the same compound?
A: downregulate

Q: And the IC50 ([9]; LNCaP-GR w/DEX 50 nM)?
A: 60 µg/mL

Q: What about the IC50 ([9]; LNCaP-GR w/DHT 2 nM) of the same compound?
A: 40 µg/mL

Q: What about the IC50 ([9]; LNCaP-GR, no DHT/DEX) of the same compound?
A: 220 µg/mL

Q: And the “inhibition of LNCaP-GR cell growth (in words)” value ([9]; in the presence of either DHT or DEX)?
A: effectively inhibited

Q: And the IC50 (LNCaP cells; LNCaP w/DHT 2 nM)?
A: 50 µg/mL

Q: What about the IC50 (LNCaP cells; no DHT) of the same compound?
A: > 500 µg/mL

Q: And the “susceptibility of LNCaP cell growth to treatment (in words)” value (LNCaP cells; in the absence of DHT)?
A: not be susceptible

Q: And the “sensitivity of LNCaP cell growth to treatment (in words)” value (LNCaP cells; in the presence of DHT)?
A: more sensitive

Q: And the GR protein expression (GR [10])?
A: but not GR

Q: What about the ERb protein expression (estrogen receptor ERb) of the same compound?
A: slightly downregulate
